{"source": "patent US20060035873A1", "about": "“Methods for inducing apolipoprotein e secretion” (priority 2000, published 2006)", "key": {"LXRα": {"target": "T1, LXRα (Homo sapiens, UniProt Q13133)", "T1 sequence (Q13133 1-447)": "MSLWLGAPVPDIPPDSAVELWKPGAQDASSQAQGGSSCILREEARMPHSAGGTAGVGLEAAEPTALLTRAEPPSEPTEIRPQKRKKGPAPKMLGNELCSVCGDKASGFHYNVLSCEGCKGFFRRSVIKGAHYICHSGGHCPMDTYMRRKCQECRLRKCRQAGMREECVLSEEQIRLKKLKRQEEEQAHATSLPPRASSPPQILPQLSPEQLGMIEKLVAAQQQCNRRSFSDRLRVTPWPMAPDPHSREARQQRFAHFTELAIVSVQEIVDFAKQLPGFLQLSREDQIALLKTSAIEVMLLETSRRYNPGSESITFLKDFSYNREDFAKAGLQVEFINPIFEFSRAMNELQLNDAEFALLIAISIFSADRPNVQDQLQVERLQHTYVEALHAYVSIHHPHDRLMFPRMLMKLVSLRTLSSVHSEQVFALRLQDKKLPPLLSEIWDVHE", "details": "see Janowsky et al. PNAS 1999; cited from earlier work"}, "[1]": {"system": "ApoE secretion by THP-1 cells", "test": "Secretion of ApoE by THP-1 cells, ApoE determined by ELISA", "assay_type": "cell-based, human", "details": "for Change in Apo E production: 72 hours incubation", "description": "The activities of the compounds can be determined an in vitro assay which comprises testing the effects of FXR and LXRα activators on the secretion of ApoE in the THP-1 cell line.\nThe THP1 cell line was derived from the peripheral blood of a child with acute monocytic leukemia. […] Fresh medium was added to maintain cell density between 2 and 9×10^5 cells/ml. Once a week, new cultures were initiated by inoculating 10 ml of medium with 2×10^6 cells in a 75 cm^2 plate. The plates were kept at 37° C. in a 5% CO2 atmosphere. For screening, cells were seeded in 24-well plates at the density of 2×10^5 cells per well. Phorbol-12-myristat-13-acetate (PMA) was added at 0 and 2.5 nM to initiate THP1 differentiation into adherent macrophage-like cells. Vehicles, reference compounds and test compounds were added simultaneously at concentrations varying from 1 to 50 μM and incubated for 72 hours. The culture medium was then recovered, centrifuged at 300 g for 5 min to remove any unattached cell and stored at −20° C. before analysis.\n96 well-microtiter plates were coated by incubating with a 5% gelatine solution from porcine skin, in 50 mM carbonate-bicarbonate buffer, pH9.6 at the concentration of 200 μl/well, for 2 hours at 37° C. The coating solution was carefully removed and the test compound was added (100 μl/well) at the appropriate dilution. Dilutions of a human ApoE standard (ICN BiomedicalsInc, USA) were simultaneously assayed. Test compounds and antibodies were diluted in the following buffer solution: PBS, 1% BSA, 0.1% Tween 20, pH 7.4. Test compounds were incubated for 1 hour at 37° C., and the wells were washed 3 times with 200 μl of buffer solution. One hundred microliters per well of the primary antibody (goat anti-human ApoE IgG) diluted 10000 fold was incubated for 1 hour at 37° C. under continuous shaking. After the third wash, 100 μl/well of the secondary antibody (anti-goat-IgG peroxidase conjugate) diluted 5000 fold was incubated for 1 hour at 37° C. with continuous shaking. Wells were washed 5 times and 100 μl/well of substrate (ortho-phenylenediamine dihydrochloride) was incubated for the appropriate time at room temperature in the dark with continuous shaking. The reaction was stopped by adding 50 μl/well of 3M sulfuric acid and incubating for 1 min at room temperature."}, "FXR": {"system": "FXR", "details": "cited from earlier work"}}, "note": "Like-named read-outs stand apart in the source and are kept apart here.", "data": [{"smiles": "CC(C)CC[C@@H](O)[C@@H](C)[C@H]1CC[C@H]2[C@@H]3CC=C4C[C@@H](O)CC[C@]4(C)[C@H]3CC[C@]12C", "note": "[22(R)-hydroxycholesterol, 5-cholestene-3β,22[R]-diol]", "values": [{"measurement": "Interaction with Nuclear receptor", "setting": "LXRα", "result": "LXRα activator ^3)"}, {"measurement": "ApoE secretion at submicromolar concentrations", "setting": "[1]; submicromolar concentrations", "result": "significant increases in ApoE secretion"}]}, {"smiles": "CC(C)CC[C@H](O)[C@@H](C)[C@H]1CC[C@H]2[C@@H]3CC=C4C[C@@H](O)CC[C@]4(C)[C@H]3CC[C@]12C", "note": "[22(S)-hydroxycholesterol, 5-cholestene-3β,22[S]-diol]", "values": [{"measurement": "Interaction with Nuclear receptor", "setting": "LXRα", "result": "Less potent activator"}]}, {"smiles": "C[C@H](CCC(=O)O)[C@H]1CC[C@H]2[C@@H]3[C@H](O)C[C@@H]4C[C@H](O)CC[C@]4(C)[C@H]3CC[C@]12C", "note": "[Chenodeoxycholic acid, 3α,7α-dihydroxy-5β-cholanic acid]", "values": [{"measurement": "Change in Apo E production", "setting": "[1]; compound 50 μM", "result": "+138%"}, {"measurement": "Change in Apo E production", "setting": "[1]; compound 50 μM, listed as chenodeoxycholic acid", "result": 138, "unit": "%"}]}, {"smiles": "C[C@H](CCC(=O)O)[C@H]1CC[C@H]2[C@@H]3[C@H](O)C[C@@H]4C[C@H](O)CC[C@]4(C)[C@H]3C[C@H](O)[C@]12C", "note": "[Cholic acid, 3α,7α,12α-trihydroxy-5β-cholan-24-oic acid]", "values": [{"measurement": "Interaction with Nuclear receptor", "setting": "FXR; see Makishima et al., Parks et al., Wang et al. 1999", "result": "Does not activate"}, {"measurement": "Change in Apo E production", "setting": "[1]; compound 50 μM", "result": "+6%"}, {"measurement": "Change in Apo E production", "setting": "[1]; compound 50 μM, listed as cholic acid", "result": "did not change ApoE secretion"}]}, {"smiles": "CC(C)=CCC/C(C)=C/CC/C(C)=C/CC/C(C)=C/CO", "note": "[Geranylgeraniol, All trans-3,7,11,15-tetramethyl-2,6,10,14-hexadecatetraen-1-ol]", "values": [{"measurement": "Interaction with Nuclear receptor", "setting": "FXR; see Forman et al. Cell 1995", "result": "Does not activate"}, {"measurement": "Change in Apo E production", "setting": "[1]; compound 20 μM", "result": "+36%"}, {"measurement": "Change in Apo E production", "setting": "[1]; compound 20 μM, listed as geranylgeraniol", "result": 36, "unit": "%"}]}]}
